Key:
HDAC1 = HDAC1 (Homo sapiens (Human), UniProt Q13547); assay: HDAC1 enzymatic assay; format: biochemical; details: read-out: Human HDAC1 IC50
Method in brief: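 HDAC1 activity was measured in duplicate 50 μl reactions containing 0.5 ng HDAC1, 10 uM of HDAC substrate, and test compound in buffer (50 mM Tris-HCl, pH 7.4, 137 mM NaCl, 2.7 mM KCl, 0.05% Tween 20, 5 μg BSA) with 1% DMSO, incubated 17 hours at room temperature. HDAC Developer was then added for 20 minutes and fluorescence read at 360/460 nm.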

HDAC6 = HDAC6 (Homo sapiens (Human), UniProt Q9UBN7); assay: HDAC6 enzymatic assay; format: biochemical; details: read-out: Human HDAC6 IC50
Method in brief: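 Human HDAC6 activity was measured in duplicate 50 μl reactions holding 2 ng HDAC6, 10 uM of HDAC substrate and test compound in HDAC assay buffer (50 mM Tris-HCl, pH 7.4, 137 mM NaCl, 2.7 mM KCl, 0.05% Tween 20, 5 μg BSA) with 1% DMSO, for 17 hours at room temperature. HDAC Developer was added for 20 minutes before reading fluorescence at 360/460 nm.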

HDAC6, sequence (Q9UBN7 whole entry): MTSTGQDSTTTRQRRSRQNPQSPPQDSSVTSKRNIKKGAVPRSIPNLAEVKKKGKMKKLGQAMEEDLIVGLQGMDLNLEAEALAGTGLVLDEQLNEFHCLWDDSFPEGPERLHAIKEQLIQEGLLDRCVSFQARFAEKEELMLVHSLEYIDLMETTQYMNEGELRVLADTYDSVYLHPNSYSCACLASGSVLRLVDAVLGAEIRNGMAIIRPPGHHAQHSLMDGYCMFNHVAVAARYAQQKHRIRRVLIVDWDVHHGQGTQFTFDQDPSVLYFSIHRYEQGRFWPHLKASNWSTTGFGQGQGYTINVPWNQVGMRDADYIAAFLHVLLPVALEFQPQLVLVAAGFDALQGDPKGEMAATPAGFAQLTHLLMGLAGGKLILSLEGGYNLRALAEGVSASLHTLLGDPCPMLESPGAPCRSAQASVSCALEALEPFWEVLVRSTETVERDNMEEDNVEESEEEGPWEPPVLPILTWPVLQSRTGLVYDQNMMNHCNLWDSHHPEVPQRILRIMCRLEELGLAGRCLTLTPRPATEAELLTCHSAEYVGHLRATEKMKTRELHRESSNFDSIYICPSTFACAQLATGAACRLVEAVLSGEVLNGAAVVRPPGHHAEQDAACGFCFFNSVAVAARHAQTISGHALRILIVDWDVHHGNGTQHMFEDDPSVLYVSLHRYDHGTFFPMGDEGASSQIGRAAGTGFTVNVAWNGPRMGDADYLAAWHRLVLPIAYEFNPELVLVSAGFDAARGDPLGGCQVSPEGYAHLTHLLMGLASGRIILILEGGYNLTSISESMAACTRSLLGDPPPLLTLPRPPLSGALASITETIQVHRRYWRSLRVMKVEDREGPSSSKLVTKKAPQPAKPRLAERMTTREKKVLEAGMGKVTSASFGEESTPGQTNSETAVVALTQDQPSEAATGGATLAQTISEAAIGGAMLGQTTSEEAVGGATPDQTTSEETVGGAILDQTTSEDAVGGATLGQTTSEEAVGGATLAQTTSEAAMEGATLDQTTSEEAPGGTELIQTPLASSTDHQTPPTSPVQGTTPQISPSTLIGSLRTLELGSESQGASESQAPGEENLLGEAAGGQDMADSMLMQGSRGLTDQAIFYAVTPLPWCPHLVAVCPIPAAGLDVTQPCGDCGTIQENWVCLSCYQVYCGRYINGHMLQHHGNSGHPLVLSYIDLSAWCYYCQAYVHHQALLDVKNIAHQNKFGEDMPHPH
HDAC1, sequence (Q13547 whole entry): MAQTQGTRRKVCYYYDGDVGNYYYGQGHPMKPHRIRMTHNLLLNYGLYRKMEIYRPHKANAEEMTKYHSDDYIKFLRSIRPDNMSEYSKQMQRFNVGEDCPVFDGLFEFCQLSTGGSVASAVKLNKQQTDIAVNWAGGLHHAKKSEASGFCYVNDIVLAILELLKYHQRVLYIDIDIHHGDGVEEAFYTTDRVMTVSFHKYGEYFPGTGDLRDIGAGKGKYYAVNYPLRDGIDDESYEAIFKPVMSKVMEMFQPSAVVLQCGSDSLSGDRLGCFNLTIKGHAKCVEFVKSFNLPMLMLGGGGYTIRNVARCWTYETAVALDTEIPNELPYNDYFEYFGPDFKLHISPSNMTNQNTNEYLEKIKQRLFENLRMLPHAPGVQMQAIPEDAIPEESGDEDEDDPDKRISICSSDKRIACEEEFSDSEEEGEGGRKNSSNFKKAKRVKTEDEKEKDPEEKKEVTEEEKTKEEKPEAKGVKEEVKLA

Structure (SMILES)	IC50 (HDAC1) [nM]	IC50 (HDAC6) [nM]
FC(F)c1nnc(-c2cnc(NC3(c4cccc(Cl)c4)CC3)nc2)o1 [Example 51, N-(1-(3-chlorophenyl)cyclopropyl)-5-(5-(difluoromethyl)-1,3,4-oxadiazol-2-yl)pyrimidin-2-amine]	> 30000	15
FC(F)c1nnc(-c2cnc(NC3(c4ccccc4Cl)CC3)nc2)o1 [Example 52, N-(1-(2-chlorophenyl)cyclopropyl)-5-(5-(difluoromethyl)-1,3,4-oxadiazol-2-yl)pyrimidin-2-amine]	> 30000	6
FC(F)c1nnc(-c2cnc(NC3(c4cccc(OC(F)(F)F)c4)CC3)nc2)o1 [Example 53, 5-(5-(difluoromethyl)-1,3,4-oxadiazol-2-yl)-N-(1-(3-(trifluoromethoxy)phenyl)cyclopropyl) pyrimidin-2-amine]	> 30000	23
FC(F)c1nnc(-c2cnc(NC3(c4ccc(OC(F)(F)F)cc4)CC3)nc2)o1 [Example 54, 5-(5-(difluoromethyl)-1,3,4-oxadiazol-2-yl)-N-(1-(4-(trifluoromethoxy)phenyl)cyclopropyl) pyrimidin-2-amine]	> 30000	22
FC(F)c1nnc(-c2cnc(NC3(c4ccccc4OC(F)(F)F)CC3)nc2)o1 [Example 55, 5-(5-(difluoromethyl)-1,3,4-oxadiazol-2-yl)-N-(1-(2-(trifluoromethoxy)phenyl)cyclopropyl) pyrimidin-2-amine]	> 30000	20
FC(F)c1nnc(-c2cnc(NC3(c4ccc(Br)nc4)CC3)nc2)o1 [Example 64, N-(1-(6-bromopyridin-3-yl)cyclopropyl)-5-(5-(difluoromethyl)-1,3,4-oxadiazol-2-yl)pyrimidin-2-amine]	> 30000	28

Continued, values first:

IC50 (HDAC1) [nM]	IC50 (HDAC6) [nM]	Structure (SMILES)
> 100000	6	Fc1ccccc1C1(Nc2ncc(-c3nnc(C(F)F)o3)cn2)CC1 [Example 56, 5-(5-(difluoromethyl)-1,3,4-oxadiazol-2-yl)-N-(1-(2-fluorophenyl)cyclopropyl)pyrimidin-2-amine]
> 100000	15	Fc1cccc(C2(Nc3ncc(-c4nnc(C(F)F)o4)cn3)CC2)c1 [Example 57, 5-(5-(difluoromethyl)-1,3,4-oxadiazol-2-yl)-N-(1-(3-fluorophenyl)cyclopropyl)pyrimidin-2-amine]
> 30000	40	FC(F)c1nnc(-c2cnc(NC3(c4ccccc4C(F)(F)F)CC3)nc2)o1 [Example 58, 5-(5-(difluoromethyl)-1,3,4-oxadiazol-2-yl)-N-(1-(2-(trifluoromethyl)phenyl)cyclopropyl) pyrimidin-2-amine]
> 30000	21	Fc1ccc(C2(Nc3ncc(-c4nnc(C(F)F)o4)cn3)CC2)cc1F [Example 59, 5-(5-(difluoromethyl)-1,3,4-oxadiazol-2-yl)-N-(1-(3,4-difluorophenyl)cyclopropyl) pyrimidin-2-amine]
> 30000	22	Fc1cccc(C2(Nc3ncc(-c4nnc(C(F)F)o4)cn3)CC2)c1F [Example 60, 5-(5-(difluoromethyl)-1,3,4-oxadiazol-2-yl)-N-(1-(2,3-difluorophenyl)cyclopropyl) pyrimidin-2-amine]
> 30000	22	Fc1ccc(F)c(C2(Nc3ncc(-c4nnc(C(F)F)o4)cn3)CC2)c1 [Example 61, 5-(5-(difluoromethyl)-1,3,4-oxadiazol-2-yl)-N-(1-(2,5-difluorophenyl)cyclopropyl) pyrimidin-2-amine]
> 30000	88	Fc1ccc(C2(Nc3ncc(-c4nnc(C(F)F)o4)cn3)CC2)c(C(F)(F)F)c1 [Example 63, 5-(5-(difluoromethyl)-1,3,4-oxadiazol-2-yl)-N-(1-(4-fluoro-2-(trifluoromethyl)phenyl)cyclopropyl) pyrimidin-2-amine]
> 30000	390	FC(F)c1nnc(-c2cnc(NC3(c4cccnc4)CC3)nc2)o1 [Example 65, 5-(5-(difluoromethyl)-1,3,4-oxadiazol-2-yl)-N-(1-(pyridin-3-yl)cyclopropyl)pyrimidin-2-amine]

— patent publication US10357493B2, “Metalloenzyme inhibitor compounds” (Selenity Therapeutics (Bermuda), Ltd., priority 2017, dated 2019)
